{"source": "patent US7897722B2", "about": "“Composition of bone formation with PHSRN-RGD containing oligopeptide” (Seoul National University Industry Foundation, priority 2007, dated 2011)", "key": {"MG63 cells [1]": {"tested_on": "MG63 cells", "experiment": "Cell adhesion assay on coated culture plates", "format": "cell-based, human", "settings": "plates coated with 0.1 μM recombinant oligopeptide; control poly-L-lysine-coated plate; P<0.05", "protocol": "(§1) MG63 cells (Korean Cell Line Bank, KCLB), used in the present invention, which is a human osteosarcoma cell line, were cultured in Dulbecco's modified Eagle's medium (DMEM) containing 10% (v/v) fetal bovine serum and 0.1% (w/v) gentamycin at 37° C., in a humidified 5% CO2 incubator.\n24-well plates were coated with 0.1 μM recombinant oligopeptide or poly-L-lysine at a predetermined concentration overnight at 4° C. and blocked with PBS containing 1% (w/v) BSA for 30 min, then rinsed with PBS.\nThe MG63 cells were serum-starved for 24 hours, harvested in 0.02% (w/v) trypsin, 1 mM EDTA, and resuspended in DMEM. After being washed 3 times with DMEM containing 100 μg/Ml soybean trypsin inhibitor and 1% (w/v) BSA, 5×10^4 MG63 cells in DMEM were plated in each well to culture at 37° C. for 30 min or 1 hour. Suspensions of control cells were maintained in BSA-coated plates at a given time. After 30 min, adherent cells were washed twice with PBS, fixed with 3% (w/v) paraformaldehyde, and stained with 0.25% (w/v) Crystal Violet (Sigma, USA) in 2% (v/v) ethanol/water. After washing with distilled water, the plates were allowed to dry. The absorbancy was measured at 570 nm to represent the mean±SD (standard deviation). Non-specific adhesion was determined using 1% BSA as a negative control group. […]"}, "MG63 cells [2]": {"tested_on": "MG63 cells", "experiment": "ALP (alkaline phosphatase) assay, osteoblastic cell differentiation", "format": "cell-based, human", "settings": "7 days, control poly-L-lysine-coated", "protocol": "as §1\nIn order to determine osteoblastic cell differentiation, ALP (Alkaline phosphatase) activity that implies in vitro bone formation activity, was measured. 5×10^4 MG63 cells were cultured in 0.1 μM recombinant oligopeptide-coated or poly-L-lysine-coated six-well plates for 7 days. Then, they were washed with PBS and lysed in 1.5 M Tris/HCl (pH 10.2) containing 1 mM ZnCl2, 1 mM MgCl2 and 1% (w/v) Triton X-100 at 4° C. for 10 min. After clarifying the cell lysates by centrifugation, the ALP activity was assayed according to the manufacturer's protocol for the ALP assay kit (Sigma, USA)."}}}
{"substance": "DPHSRN-SITGTNLTPGYTITVYAVTG-RGD (DPHSRNSITGTNLTPGYTITVYAVTGRGD) [F20]", "values": [{"measurement": "cell adhesion capacity (absorbance at 570 nm) compared with control plates", "setting": "MG63 cells [1]", "result": 2, "unit": "fold"}, {"measurement": "ALP activity of MG63 cells compared with control plates", "setting": "MG63 cells [2]; 0.1 μM oligopeptide-coated plates", "result": 2.5, "unit": "fold"}, {"measurement": "ALP activity of MG63 cells compared with control plates", "setting": "MG63 cells [2]; 0.1 μM oligopeptide-coated six-well plates, n=3, P<0.05", "result": 2.5, "unit": "times"}]}
